In PMC12040169 (PLOS Biology, 2025):

assay: in vitro; conditions: human, hela cells, % viability

SMILES | viability at 28.5 h, 10 µM [%]
COc1ccccc1CC(=O)Nc1ccc(-c2nnc(-c3ccc(C)cc3)o2)cc1 [CBK268329] | 105
c1ccc(CCc2nn3c(Cn4cnc5ccccc54)nnc3s2)cc1 [CBK268332] | 84.2
COc1ccc(-c2nnc(SCC(=O)c3ccc(C)o3)o2)cc1 [CBK268334] | 88
O=C(NC(=S)N1CCN(c2ccc([N+](=O)[O-])c(N3CCOCC3)c2)CC1)c1cc2ccccc2o1 [CBK268335] | 109
Cc1ccc(NC(=O)Cn2nc(C)c([N+](=O)[O-])c2C)cc1Cl [CBK268336] | 98.5
Brc1ccc(OCc2ccccc2)c(CNCc2ccccn2)c1 [CBK268340C] | 99.9
Cc1ccc(-c2nn3c(C)nnc3c3ccccc23)cc1S(N)(=O)=O [CBK268342] | 97.3
COc1cccc(NC(=O)CSc2nnc(-c3ccccc3O)n2-c2ccccc2)c1 [CBK268343] | 108
COCCN1C(=O)c2ccc(C(=O)Nc3ccc(O)c(C(=O)O)c3)cc2C1=O [CBK268344] | 102
O=C(CSc1nnc(-c2cc(Br)ccc2O)n1-c1ccccc1)N1CCc2ccccc21 [CBK268346] | 105
COc1ccc(-c2nnc(SCC(=O)O)n2-c2cccc(C(F)(F)F)c2)cc1OC [CBK268347] | 88.7
O=C(COc1ccc(S(=O)(=O)N2CCOCC2)cc1)N1CCc2ccccc2C1 [CBK268350] | 92.1
O=C(Nc1cccc(S(=O)(=O)N2CCCC2)c1)c1nc[nH]n1 [CBK268353] | 103
CC(C)C(CCC(=O)Nc1ccccc1[N+](=O)[O-])C(=O)O (centres unmarked) [CBK268356] | 86.3
Cc1ccc(Cl)cc1NC(=O)c1ccc(NCCN2C(=O)C3C4C=CC(C4)C3C2=O)c([N+](=O)[O-])c1 (centres unmarked) [CBK268357] | 92.2
O=C(CCn1c(=O)oc2ccccc21)Nc1ccc(S(=O)(=O)N2CCCCC2)cc1 [CBK268365] | 82
CC(=O)NCCc1nc2cc(NC(=O)c3ccc([N+](=O)[O-])cc3)ccc2n1C [CBK268368] | 117
Cc1ccc(Cl)cc1NC(=O)c1cc(NC(=O)C2CCCCC2C(=O)O)ccc1N1CCCCC1 (centres unmarked) [CBK268371] | 87
O=S(=O)(Cc1ccc(Cl)cc1)NCCCn1ccnc1 [CBK268372] | 106
Cc1ccc(S(=O)(=O)NC(C)(C)CSc2nnc[nH]2)cc1 [CBK268374] | 81.5
Cc1cc(=O)n2c3ccccc3n(CC(O)CN3CCN(C(c4ccccc4)c4ccccc4)CC3)c2c1C#N (centres unmarked) [CBK268375] | 89.8

SMILES | viability at 28.5 h, 10 µM [%]
Cc1ccc([N+](=O)[O-])cc1NC(=O)CSc1nnc(-c2ccco2)o1 [CBK268378] | 117
CS(=O)(=O)Nc1ccc(C(=O)Nc2ccc(S(=O)(=O)N3CCOCC3)cc2)cc1 [CBK268379] | 117
O=C(CSCc1c(F)cccc1Cl)NCc1ccncc1 [CBK268381] | 87.1
CC(=O)Nc1ccc(S(=O)(=O)Nc2cc(C)c(-n3nc4ccccc4n3)cc2O)cc1 [CBK268382] | 81.2
Cc1nn2c(-c3cccc(NC(=O)CN4CCOCC4)c3)nnc2c2ccccc12 [CBK268383] | 84.3
O=C(CSc1ccc(Cl)cc1)NNC(=O)c1cccc([N+](=O)[O-])c1 [CBK268384] | 93.5
COc1ccccc1NC(=O)CSCc1nc2ccccc2[nH]1 [CBK268385] | 105
O=C(NCCN1CCOCC1)NCC12CC3CC(C1)CC(c1ccccc1)(C3)C2 [CBK268388] | 89.1
O=S(=O)(c1ccc(NC(=S)NCc2cccnc2)cc1)N1CCOCC1 [CBK268396] | 72.8
O=C(O)c1cc(S(=O)(=O)N2CCOCC2)ccc1F [CBK268398] | 106
CSc1nc2ccc(S(=O)(=O)N3CCCC3)cc2s1 [CBK268400] | 104
COc1ccc(OC)c(Nc2nc(NCC3CCCO3)c3ccccc3n2)c1 (centres unmarked) [CBK268403C] | 90.9
Cn1c(CN2CCCCC2)nc2cc(NS(=O)(=O)c3ccc(Cl)cc3)ccc21 [CBK268404] | 82.8
Nn1c(SCc2cc(=O)[nH]c3ccccc23)nnc1C(O)c1ccccc1 (centres unmarked) [CBK268405] | 99.2
Cc1cccc(-c2nc(=S)c3c(n2CCCN(C)C)CCCC3)c1 [CBK268406] | 102
O=C(NCCc1ccccc1)c1ccccc1NS(=O)(=O)N1CCCC1 [CBK268407] | 80.5
O=[N+]([O-])c1ccc(N2CCN(Cc3c(O)ccc4ccccc34)CC2)cc1NCc1ccccc1 [CBK268408] | 105
CCOC(=O)c1ccc(-c2ccc(/C=C/c3nn4cnnc4c(O)c3[N+](=O)[O-])o2)cc1 [CBK268409] | 107
COc1ccc(Cl)cc1NC(=O)CSc1nc2cc3ccccc3cc2[nH]1 [CBK268410] | 82.1
O=C(COc1ccc(S(=O)(=O)N2CCCC2)cc1Cl)NCc1ccccn1 [CBK268412] | 91.3
O=C(O)CCN1C(=O)c2ccc(NC(=O)c3ccccc3Cl)cc2C1=O [CBK268413] | 83.7

SMILES | viability at 28.5 h, 10 µM [%]
Cc1ccc(Nc2c([N+](=O)[O-])nn(-c3ccccc3)[n+]2[O-])cc1F [CBK268414] | 102
Cn1c(CCN2CCOCC2)nc2cc(NC(=O)c3cccs3)ccc21 [CBK268415] | 97.9
COc1ccc(NC(=O)CSCc2cc(O)[nH]n2)cc1 [CBK268417] | 99.3
c1nc(NCCN2CCOCC2)c2c3c(sc2n1)CCCCC3 [CBK268418] | 103
O=C(O)COc1ccc(S(=O)(=O)N2CCCCC2)cc1Cl [CBK268419] | 105
CC(C)(C)NC(=O)COc1ccc(CNCc2ccccn2)cc1 [CBK268420C] | 95.5
CC(C)(C)c1ccc(OCc2nnc(S)n2N)cc1 [CBK268421] | 89.1
O=C(CSc1oc(-c2ccco2)nc1S(=O)(=O)c1ccccc1)c1ccccc1 [CBK268424] | 96.9
CN(CC(=O)O)S(=O)(=O)c1cccc2cccc(Cl)c12 [CBK268433] | 107
COC(=O)Nc1ncc(CN2C(=O)c3ccccc3C2=O)s1 [CBK268434] | 111
O=C(CSCc1ccc(Br)cc1)NCc1ccccn1 [CBK268435] | 102
Cn1c(CCNC(=O)C2CCCCC2)nc2cc([N+](=O)[O-])ccc21 [CBK268440] | 106
Fc1cc(Cl)ccc1NC(=S)NCCN1CCOCC1 [CBK268441] | 98.4
O=C(O)COc1ccc(S(=O)(=O)Nc2ccc(F)cc2)cc1 [CBK268442] | 105
COCCN1C(=O)c2ccc(C(=O)Nc3cc(C(=O)O)cc(C(=O)O)c3)cc2C1=O [CBK268444] | 96.5
CN(CC(=O)O)S(=O)(=O)c1ccc(F)c2ccccc12 [CBK268447] | 98.5
CCC(=O)Nc1nc(-c2ccc(C(=O)OC)cc2)nc2c1c(=O)oc1ccccc12 [CBK268449] | 110
CN(C)S(=O)(=O)c1ccc(C(=O)Nc2ccc3ncn(C)c(=O)c3c2)cc1 [CBK268450] | 103
CN1CCN(C(=O)COc2ccc(S(=O)(=O)Nc3ccc(F)cc3)cc2)CC1 [CBK268454] | 94.5
Cc1ccc(Nc2nc(CSc3nnc(-c4ccccc4)o3)cs2)cc1 [CBK268455] | 99.7
